Assay [1] concerns the target T1, BRAF (Homo sapiens, UniProt P15056).
T1 construct: GST; purchased Millipore Sigma B4062-10UG
Nature of the assay: BRAF kinase activity assay (ADP-Glo). Type of assay: biochemical. The settings on record: Table 3. On the procedure: (§1) Compound preparation: solid samples of each substances in 1dram vials were suspended in DMSO (Fisher Scientific) at a stock concentration of 20 mM. Stocks were kept at −20° C. and protected from light. If solubility of the compound at 20 mM appeared to be an issue, the initial concentration of the DMSO stock was changed to 10 mM or 5 mM.
(§2) In vitro enzymatic reactions were used for evaluating compounds intrinsic activity against BRAF, CRAF and ARAF. For BRAF and CRAF, 0.375 nM of purified GST-tagged kinases (cat #B4062-10UG and cat #R1656-10UG respectively from Millipore Sigma) were incubated with 75 nM of kinase-dead MEK1 substrate (cat #40075; BPS Bioscience) in the presence of 10 μM of Ultrapure ATP (cat #V9102; Promega; part V915A) with and without the test compound in a buffer containing 50 mM HEPES pH 7.5, 10 mM MgCl2, 1 mM EDTA, 0.01% Brij-35 and 2 mM DTT. Separate reactions were performed with the MEK1 substrate and ATP as a blank control. ARAF, kinase reactions were rigorously the same with the exception that kinase concentration was raised to 3.75 nM (cat #1768-0000-1; Reaction Biology).
(§3) For compound treatment, 5 μL/well of test substance solution are placed in a 384-well proxyplate (Perkin Elmer) and mixed with 2× concentrated kinase reactions. The dilution series is selected so that nine concentrations cover a range from 100 nM to 0.01 nM. […] The final concentration of DMSO in the assay is set at 0.05%.
(§4) BRAF and CRAF kinase reactions were carried out for a total of 2 hours at 30° C. and then stopped by ½ dilution in ADP-Glo Reagent (cat #V9102; Promega; part V912C). Reactions were then incubated for 1 h at room temperature before addition of one volume of Kinase Detection Reagent (cat #V9102; Promega; part V917A). Plates were then equilibrated at room temperature for 30 minutes before detection of luminescence on a Synergy Neo2 plate reader (Biotek). The effect of each compound dilution on BRAF and CRAF kinase activity was expressed as % inhibition and calculated as follows. First, the internal 100% inhibition control (average of luminescence in kinase reactions comprising kinase dead MEK1 substrate alone) was subtracted from each data point. The average of DMSO (vehicle) controls (set as 0% inhibition) was established and used to calculate % inhibition:
(§5) IC50 values were obtained by plotting the kinase inhibition values and fitting the dose-activity curves using a log(agonist) versus response−variable slope (four parameters) function using either GraphPadPrism (V7.0) or Dotmatics Screening Ultra platform. Standards included in the ARAF kinase assay were Belvarafenib (MedChem Express cat #HY-109080; CAS #1446113-23-0), LXH254 (MedChem Express cat #HY-112089; CAS #1800398-38-2) and BGB283 (cat #HY-18957; CAS #1446090-79-4).

Assay [2] has as its system HCT116 pERK. Nature of the assay: Phospho-ERK inhibition, AlphaLISA SureFire Ultra p-ERK 1/2. The class given is cell-based, human. The settings on record: Table 3; for IC50: 1 h treatment; for HCT116 (Ymin %): lowest value of the pERK IC50 curve. The essentials:
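Cells plated in RPMI-1640 with 5% FBS, held overnight, then exposed 1 h to ten-point compound dilutions (top 30 or 10 μM down to 0.33 nM; 0.5% DMSO). Lysates read for p-ERK1/2 (Thr202/Tyr204) by AlphaLISA; % inhibition relative to DMSO after subtracting a 1 μM trametinib background; IC50 from four-parameter fit.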
(In general: In Alpha technology, singlet oxygen from a donor bead excites a nearby acceptor bead.)

For assay [3], the target named is CRAF (Homo sapiens, UniProt P04049). Nature of the assay: CRAF kinase activity assay (ADP-Glo). Type of assay: biochemical. To be noted: Table 3. As to the method:
as §1, §2, §3, §4, §5

SMILES strings stand for the structures.

Sequence of CRAF (P04049 whole entry): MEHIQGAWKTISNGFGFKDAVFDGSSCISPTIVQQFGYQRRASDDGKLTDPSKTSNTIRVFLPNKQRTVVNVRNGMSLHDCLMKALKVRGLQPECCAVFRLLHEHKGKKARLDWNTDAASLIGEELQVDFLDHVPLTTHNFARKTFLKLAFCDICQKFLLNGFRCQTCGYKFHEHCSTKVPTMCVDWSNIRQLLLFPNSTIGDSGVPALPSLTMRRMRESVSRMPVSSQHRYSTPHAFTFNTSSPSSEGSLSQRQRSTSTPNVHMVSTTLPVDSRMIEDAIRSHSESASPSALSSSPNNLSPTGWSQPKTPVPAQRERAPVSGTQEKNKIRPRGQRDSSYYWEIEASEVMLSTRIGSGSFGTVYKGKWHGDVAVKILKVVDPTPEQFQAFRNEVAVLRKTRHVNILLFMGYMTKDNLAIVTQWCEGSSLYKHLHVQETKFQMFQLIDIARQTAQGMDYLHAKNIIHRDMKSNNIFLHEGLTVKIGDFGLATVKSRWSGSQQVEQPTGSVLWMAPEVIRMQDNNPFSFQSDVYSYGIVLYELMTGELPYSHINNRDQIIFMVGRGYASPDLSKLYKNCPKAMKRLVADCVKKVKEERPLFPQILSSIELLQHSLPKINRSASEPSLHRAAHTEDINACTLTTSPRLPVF
T1 sequence (P15056 whole entry): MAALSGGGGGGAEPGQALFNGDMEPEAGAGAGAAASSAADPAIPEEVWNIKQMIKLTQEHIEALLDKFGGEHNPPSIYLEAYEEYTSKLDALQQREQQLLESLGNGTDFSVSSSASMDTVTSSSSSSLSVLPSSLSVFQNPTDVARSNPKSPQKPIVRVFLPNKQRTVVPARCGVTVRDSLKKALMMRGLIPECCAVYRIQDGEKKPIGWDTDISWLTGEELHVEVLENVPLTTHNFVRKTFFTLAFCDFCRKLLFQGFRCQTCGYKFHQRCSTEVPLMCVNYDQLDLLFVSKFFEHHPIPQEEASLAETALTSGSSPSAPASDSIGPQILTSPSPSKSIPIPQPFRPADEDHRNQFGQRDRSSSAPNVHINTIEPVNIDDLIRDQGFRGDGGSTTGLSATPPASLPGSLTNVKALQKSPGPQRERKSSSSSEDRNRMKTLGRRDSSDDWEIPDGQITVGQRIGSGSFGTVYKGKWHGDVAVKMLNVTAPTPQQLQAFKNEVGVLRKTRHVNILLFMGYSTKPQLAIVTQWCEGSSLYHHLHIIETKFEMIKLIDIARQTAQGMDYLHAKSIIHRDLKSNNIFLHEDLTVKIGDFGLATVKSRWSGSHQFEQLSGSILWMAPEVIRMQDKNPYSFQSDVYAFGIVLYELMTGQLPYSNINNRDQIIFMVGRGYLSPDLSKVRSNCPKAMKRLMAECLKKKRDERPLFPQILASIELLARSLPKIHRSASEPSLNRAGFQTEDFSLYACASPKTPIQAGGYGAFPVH

Broadly, the IC50 is the concentration needed to halve the response being measured. `CC1(O)CCN(c2cccc3c2ncn3-c2ncc3ncnc(Nc4c(F)ccc(NS(=O)(=O)c5cccc(Cl)c5Cl)c4F)c3n2)CC1` [Example 130]: the values for the IC50 in assay [1], in assay [2] and in assay [3] were 1 to 10 nM, < 500 nM and < 10 nM, respectively. Besides, the “HCT116 (Ymin %)” value in assay [2] is on record as −13%.
For the compound `COC1CCN(c2cccc3c2ncn3-c2ncc3ncnc(Nc4c(F)ccc(NS(=O)(=O)c5cccc(Cl)c5Cl)c4F)c3n2)CC1` [Example 131], the IC50 is 1 to 10 nM in assay [1], < 500 nM in assay [2] and 10 to 50 nM in assay [3]. For the same compound, in assay [2], the “HCT116 (Ymin %)” value is on record as −4%.
Consider `N#CC1CCN(c2cccc3c2ncn3-c2ncc3ncnc(Nc4c(F)ccc(NS(=O)(=O)c5cccc(Cl)c5Cl)c4F)c3n2)CC1` [Example 132], for which the values for the IC50 in assay [1], in assay [2] and in assay [3] were 1 to 10 nM, < 500 nM and < 10 nM, respectively. The “HCT116 (Ymin %)” value in assay [2] is −4%.
Taken in the same sequence, the figures for `CCC1(O)CCN(c2cccc3c2ncn3-c2ncc3ncnc(Nc4c(F)ccc(NS(=O)(=O)c5cccc(Cl)c5Cl)c4F)c3n2)CC1` [Example 133] were 1 to 10 nM, < 500 nM, < 10 nM and −6%.
Regarding `CN(CCO)c1cccc2c1ncn2-c1ncc2ncnc(Nc3c(F)ccc(NS(=O)(=O)c4cccc(Cl)c4Cl)c3F)c2n1` [Example 134], the IC50 in assay [1] was 1 to 10 nM; in assay [2], < 500 nM; in assay [3], < 10 nM. In addition, the “HCT116 (Ymin %)” value in assay [2] was found to be 8%.
On to `N#CC1(c2cccc3c2nnn3-c2ncc3ncnc(Nc4c(F)ccc(NS(=O)(=O)c5cccc(Cl)c5Cl)c4F)c3n2)CC1` [Example 135], for which the IC50 in assay [1] is 1 to 10 nM; in assay [2] (Homo sapiens, HCT-116), 500 to 1000 nM; in assay [3], < 10 nM.
As to `CCC1(O)CCN(c2cccc3c2nnn3-c2ncc3ncnc(Nc4c(F)ccc(NS(=O)(=O)c5cccc(Cl)c5Cl)c4F)c3n2)CC1` [Example 136], the values for the IC50 in assay [1], in assay [2] and in assay [3] were 1 to 10 nM, < 500 nM and < 10 nM, respectively. Also, the “HCT116 (Ymin %)” value in assay [2] was 19%.
As for `COCCOc1cccc2c1nnn2-c1ncc2ncnc(Nc3c(F)ccc(NS(=O)(=O)c4cccc(Cl)c4Cl)c3F)c2n1` [Example 137], the IC50 in assay [1] is 1 to 10 nM; in assay [2] (Homo sapiens, HCT-116) it was < 500 nM; in assay [3] it was < 10 nM.
`O=S(=O)(Nc1ccc(F)c(Nc2ncnc3cnc(-n4nnc5c(N6CCC7(CCCO7)CC6)cccc54)nc23)c1F)c1cccc(Cl)c1Cl` [Example 138]: the IC50 in assay [1] was > 10 nM; in assay [2], < 500 nM; in assay [3] it was 10 to 50 nM. In assay [2], the “HCT116 (Ymin %)” value is listed as 1%.
Consider `O=S(=O)(Nc1ccc(F)c(Nc2ncnc3cnc(-n4nnc5c(N6CCN(CCO)CC6)cccc54)nc23)c1F)c1cccc(Cl)c1Cl` [Example 139], for which the figures for the IC50 in assay [1], in assay [2] and in assay [3] were < 1 nM, < 500 nM and < 10 nM, respectively. The “HCT116 (Ymin %)” value in assay [2] was 2%.
`O=S(=O)(Nc1ccc(F)c(Nc2ncnc3cnc(-n4cnc5c(N6CC(CF)C6)cccc54)nc23)c1F)c1cccc(Cl)c1Cl` [Example 140]: the IC50 is > 10 nM in assay [1], < 500 nM in assay [2] and 10 to 50 nM in assay [3]. For the same compound, the “HCT116 (Ymin %)” value in assay [2] was −16%.
As for `CCS(=O)(=O)c1cn(-c2ncc3ncnc(Nc4c(F)ccc(NS(=O)(=O)c5cccc(Cl)c5Cl)c4F)c3n2)c2ccccc12` [Example 141], the IC50 in assay [1] is 1 to 10 nM; in assay [2], < 500 nM; in assay [3] it was 10 to 50 nM. The “HCT116 (Ymin %)” value in assay [2] is −3%.
For the compound `O=S(=O)(Nc1ccc(F)c(Nc2ncnc3cnc(-n4cc(S(=O)(=O)C5CCOCC5)c5ccccc54)nc23)c1F)c1cccc(Cl)c1Cl` [Example 142], the IC50 in assay [1] was < 1 nM; in assay [2], < 500 nM; in assay [3] it was < 10 nM. Besides, the “HCT116 (Ymin %)” value in assay [2] is given as −15%.
In the case of `O=S(=O)(Cc1ccncc1)c1cn(-c2ncc3ncnc(Nc4c(F)ccc(NS(=O)(=O)c5cccc(Cl)c5Cl)c4F)c3n2)c2ccccc12` [Example 143], the IC50 was 1 to 10 nM in assay [1], < 500 nM in assay [2] and 10 to 50 nM in assay [3]. The “HCT116 (Ymin %)” value in assay [2] is on record as −7%.
The like results for `O=S(=O)(CC1CCOCC1)c1cn(-c2ncc3ncnc(Nc4c(F)ccc(NS(=O)(=O)c5cccc(Cl)c5Cl)c4F)c3n2)c2ccccc12` [Example 144] were, in that order, 1 to 10 nM, < 500 nM, 10 to 50 nM and −9%.
Take `CN(C)C1CCN(c2cccc3c2ncn3-c2ncc3ncnc(Nc4c(F)ccc(NS(=O)(=O)c5cccc(Cl)c5Cl)c4F)c3n2)CC1` [Example 145]: the values for the 50% inhibitory concentration (IC50) in assay [1], in assay [2] and in assay [3] were < 1 nM, < 500 nM and < 10 nM, respectively. Further, in assay [2], the “HCT116 (Ymin %)” value is reported as −8%.
Taken in the same sequence, the figures for `O=S(=O)(Nc1ccc(F)c(Nc2ncnc3cnc(-n4cnc5c(N6CCN(CCO)CC6)cccc54)nc23)c1F)c1cccc(Cl)c1Cl` [Example 146] were < 1 nM, < 500 nM, < 10 nM and −9%.
Turning to `O=S(=O)(Nc1ccc(F)c(Nc2ncnc3cnc(-n4cnc5c(N6CC(CCO)C6)cccc54)nc23)c1F)c1cccc(Cl)c1Cl` [Example 147], the IC50 in assay [1] is 1 to 10 nM; in assay [2] it was < 500 nM; in assay [3], 10 to 50 nM. Also, in assay [2], the “HCT116 (Ymin %)” value was −9%.
Taken in the same sequence, the figures for `CCc1ccccc1S(=O)(=O)Nc1ccc(F)c(Nc2ncnc3cnc(-n4cnc5ccccc54)nc23)c1F` [Example 148] were > 10 nM, 1000 to 10000 nM, 10 to 50 nM and −1%.
Consider `CCc1ccccc1S(=O)(=O)Nc1ccc(F)c(Nc2ncnc3cnc(-n4cnc5c(N6CCC(O)(CC)CC6)cccc54)nc23)c1F` [Example 149], for which the IC50 is > 10 nM in assay [1], < 500 nM in assay [2] and 10 to 50 nM in assay [3]. Moreover, the “HCT116 (Ymin %)” value in assay [2] is given as 4%.
The like results for `O=S(=O)(Nc1ccc(F)c(Nc2ncnc3cnc(-n4cnc5ccccc54)nc23)c1F)c1cccc2c1OC(F)(F)O2` [Example 150] were, in that order, 1 to 10 nM, 1000 to 10000 nM, 10 to 50 nM and −8%.
`CCC1(O)CCN(c2cccc3c2ncn3-c2ncc3ncnc(Nc4c(F)ccc(NS(=O)(=O)c5cccc6c5OC(F)(F)O6)c4F)c3n2)CC1` [Example 151]: the values for the IC50 in assay [1], in assay [2] and in assay [3] were 1 to 10 nM, < 500 nM and 10 to 50 nM, respectively. Moreover, the “HCT116 (Ymin %)” value in assay [2] was determined as 10%.
`Cc1cccc(S(=O)(=O)Nc2ccc(F)c(Nc3ncnc4cnc(-n5cnc6ccccc65)nc34)c2F)c1Cl` [Example 152]: the IC50 is 1 to 10 nM in assay [1], 1000 to 10000 nM in assay [2] and > 50 nM in assay [3]. Moreover, in assay [2], the “HCT116 (Ymin %)” value is recorded as −15%.
Taken in the same sequence, the figures for `CCC1(O)CCN(c2cccc3c2ncn3-c2ncc3ncnc(Nc4c(F)ccc(NS(=O)(=O)c5cccc(C)c5Cl)c4F)c3n2)CC1` [Example 153] were 1 to 10 nM, < 500 nM, 10 to 50 nM and −6%.
Turning to `Cc1c(S(=O)(=O)Nc2ccc(F)c(Nc3ncnc4cnc(-n5cnc6ccccc65)nc34)c2F)ccc(F)c1F` [Example 154], the IC50 in assay [1] was 1 to 10 nM; in assay [2], 500 to 1000 nM; in assay [3], > 50 nM. The “HCT116 (Ymin %)” value in assay [2] is on record as 3%.
In the case of `CCC1(O)CCN(c2cccc3c2ncn3-c2ncc3ncnc(Nc4c(F)ccc(NS(=O)(=O)c5ccc(F)c(F)c5C)c4F)c3n2)CC1` [Example 155], the IC50 is 1 to 10 nM in assay [1], < 500 nM in assay [2] and > 50 nM in assay [3]. In addition, the “HCT116 (Ymin %)” value in assay [2] is given as −8%.

These data come from patent publication US20240239801A1, “PYRIMIDO[5,4,D]PYRIMIDINE COMPOUNDS, COMPOSITIONS COMPRISING THEM AND USES THEREOF” (Université de Montréal, priority 2021, published 2024).
